# Assay results: patent publication US6737383B1, “Herbicidal oxadiazolidines” (priority 1999, dated 2004)
# What was measured:
# cocklebur = test: Test B pre/postemergence cocklebur; type: in vivo, Xanthium strumarium
# In short: (§1)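 Response is a visual 0-to-10 score relative to untreated plants, where 0 means no effect and 10 means complete control, taken twelve to sixteen days after application. Treatments went onto soil at planting and onto foliage of 1- to 4-leaf plants, using a surfactant-containing non-phytotoxic solvent.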
# soybean = test: Test B pre/postemergence soybean; type: in vivo, Glycine max
# In short: as §1
# crabgrass = test: Test B pre/postemergence crabgrass; type: in vivo, Digitaria sanguinalis
# In short: as §1
# giant foxtail = test: Test B pre/postemergence giant foxtail; type: in vivo, Setaria faberii
# In short: as §1
# purple nutsedge = test: Test B pre/postemergence purple nutsedge; type: in vivo, Cyperus rotundus
# In short: as §1
# blackgrass = test: Test B pre/postemergence blackgrass; type: in vivo, Alopecurus myosuroides
# In short: as §1
# corn = test: Test B pre/postemergence corn; type: in vivo, Zea mays
# In short: as §1
# morningglory = test: Test B pre/postemergence morningglory; type: in vivo, Ipomoea hederacea
# In short: as §1
# wild oat = test: Test B pre/postemergence wild oat; type: in vivo, Avena fatua
# In short: as §1
# pigweed = test: Test B pre/postemergence pigweed; type: in vivo, Amaranthus retroflexus
# In short: as §1
# surinam grass = test: Test B pre/postemergence surinam grass; type: in vivo, Brachiaria decumbens
# In short: as §1
# bedstraw = test: Test B pre/postemergence bedstraw; type: in vivo, Galium aparine
# In short: as §1
# rape = test: Test B pre/postemergence rape; type: in vivo, Brassica napus
# In short: as §1
# sugar beet = test: Test B pre/postemergence sugar beet; type: in vivo, Beta vulgaris
# In short: as §1
# velvetleaf = test: Test B pre/postemergence velvetleaf; type: in vivo, Abutilon theophrasti
# In short: as §1
# wheat = test: Test B pre/postemergence wheat; type: in vivo, Triticum aestivum
# In short: as §1
# [1] = Postemergence, Rate 62 g/ha, scale 0 to 10, 0 is no effect, 10 is complete control
# [2] = Postemergence, Rate 125 g/ha, scale of 0 to 10 where 0 is no effect and 10 is complete control
# [3] = Preemergence, Rate 62 g/ha, scale of 0 to 10 where 0 is no effect and 10 is complete control
# [4] = Preemergence, Rate 125 g/ha, scale of 0 to 10 where 0 is no effect and 10 is complete control
# [5] = Preemergence, Rate 250 g/ha, scale 0 (no effect) to 10 (complete control)
# [6] = Preemergence, Rate 500 g/ha, scale of 0 to 10 where 0 is no effect and 10 is complete control
# [7] = Rate 250 g/ha, Postemergence, scale 0 to 10, 0 is no effect, 10 is complete control
# [8] = Rate 500 g/ha, Postemergence, scale 0 to 10, 0 is no effect, 10 is complete control
compound,measurement,setting,value
CC(C)N(C(=O)n1oc(=O)n(CC(F)F)c1=O)c1ccc(F)cc1 [Compound 710],"Plant response rating, Cocklebur",cocklebur; [1],0
same,Cocklebur plant response rating,cocklebur; [2],0
same,Cocklebur plant response rating,cocklebur; [3],0
same,"Plant response rating, Cocklebur",cocklebur; [4],0
same,Cocklebur plant response rating,cocklebur; [5],0
same,"Plant response rating, Cocklebur",cocklebur; [6],0
same,Cocklebur plant response rating,cocklebur; [7],0
same,Cocklebur plant response rating,cocklebur; [8],0
same,"Plant response rating, Soybean",soybean; [1],3
same,Soybean plant response rating,soybean; [2],4
same,Soybean plant response rating,soybean; [3],0
same,"Plant response rating, Soybean",soybean; [4],0
same,Soybean plant response rating,soybean; [5],3
same,Soybean plant response rating,soybean; [7],4
same,Soybean plant response rating,soybean; [8],5
same,"Plant response rating, Crabgrass",crabgrass; [1],8
same,Crabgrass plant response rating,crabgrass; [2],9
same,Crabgrass plant response rating,crabgrass; [3],10
same,"Plant response rating, Crabgrass",crabgrass; [4],10
same,Crabgrass plant response rating,crabgrass; [5],10
same,Crabgrass plant response rating,crabgrass; [7],9
same,Crabgrass plant response rating,crabgrass; [8],9
same,"Plant response rating, Giant foxtail",giant foxtail; [1],8
same,Giant foxtail plant response rating,giant foxtail; [2],8
same,Giant foxtail plant response rating,giant foxtail; [3],10
same,"Plant response rating, Giant foxtail",giant foxtail; [4],10
same,Giant foxtail plant response rating,giant foxtail; [5],10
same,Giant foxtail plant response rating,giant foxtail; [7],9
same,Giant foxtail plant response rating,giant foxtail; [8],9
same,"Plant response rating, Nutsedge",purple nutsedge; [1],0
same,Nutsedge plant response rating,purple nutsedge; [2],0
same,"Plant response rating, Nutsedge",purple nutsedge; [4],0
same,Nutsedge plant response rating,purple nutsedge; [5],0
same,Nutsedge plant response rating,purple nutsedge; [7],0
same,Nutsedge plant response rating,purple nutsedge; [8],3
same,"Plant response rating, Blackgrass",blackgrass; [1],5
same,Blackgrass plant response rating,blackgrass; [2],6
same,Blackgrass plant response rating,blackgrass; [3],9
same,"Plant response rating, Blackgrass",blackgrass; [4],9
same,Blackgrass plant response rating,blackgrass; [5],9
same,"Plant response rating, Blackgrass",blackgrass; [6],10
same,Blackgrass plant response rating,blackgrass; [7],6
same,Blackgrass plant response rating,blackgrass; [8],6
same,"Plant response rating, Corn",corn; [1],0
same,Corn plant response rating,corn; [2],0
same,Corn plant response rating,corn; [3],0
same,"Plant response rating, Corn",corn; [4],0
same,Corn plant response rating,corn; [5],0
same,Corn plant response rating,corn; [7],0
same,Corn plant response rating,corn; [8],2
same,"Plant response rating, Morningglory",morningglory; [1],4
same,Morningglory plant response rating,morningglory; [2],4
same,Morningglory plant response rating,morningglory; [3],0
same,"Plant response rating, Morningglory",morningglory; [4],0
same,Morningglory plant response rating,morningglory; [5],0
same,Morningglory plant response rating,morningglory; [7],4
same,Morningglory plant response rating,morningglory; [8],8
same,"Plant response rating, Wild oats",wild oat; [1],1
same,Wild oats plant response rating,wild oat; [2],3
same,Wild oats plant response rating,wild oat; [3],8
same,"Plant response rating, Wild oats",wild oat; [4],9
same,Wild oats plant response rating,wild oat; [5],9
same,Wild oats plant response rating,wild oat; [7],5
same,Wild oats plant response rating,wild oat; [8],6
same,"Plant response rating, Redroot pigweed",pigweed; [1],8
same,Redroot pigweed plant response rating,pigweed; [2],8
same,Redroot pigweed plant response rating,pigweed; [3],8
same,"Plant response rating, Redroot pigweed",pigweed; [4],8
same,Redroot pigweed plant response rating,pigweed; [5],10
same,Redroot pigweed plant response rating,pigweed; [7],9
same,Redroot pigweed plant response rating,pigweed; [8],9
same,"Plant response rating, B. signalgrass",surinam grass; [1],5
same,B. signalgrass plant response rating,surinam grass; [2],5
same,B. signalgrass plant response rating,surinam grass; [3],8
same,"Plant response rating, B. signalgrass",surinam grass; [4],8
same,B. signalgrass plant response rating,surinam grass; [5],8
same,"Plant response rating, B. signalgrass",surinam grass; [6],9
same,B. signalgrass plant response rating,surinam grass; [7],6
same,B. signalgrass plant response rating,surinam grass; [8],7
same,Bedstraw plant response rating,bedstraw; [2],1
same,Bedstraw plant response rating,bedstraw; [3],3
same,"Plant response rating, Bedstraw",bedstraw; [4],3
same,Bedstraw plant response rating,bedstraw; [5],5
same,"Plant response rating, Bedstraw",bedstraw; [6],7
same,Bedstraw plant response rating,bedstraw; [7],6
same,Bedstraw plant response rating,bedstraw; [8],8
same,"Plant response rating, Rape",rape; [1],0
same,Rape plant response rating,rape; [2],0
same,Rape plant response rating,rape; [3],7
same,"Plant response rating, Rape",rape; [4],8
same,Rape plant response rating,rape; [5],8
same,Rape plant response rating,rape; [7],3
same,Rape plant response rating,rape; [8],5
same,"Plant response rating, Sugarbeets",sugar beet; [1],0
same,Sugarbeets plant response rating,sugar beet; [2],0
same,Sugarbeets plant response rating,sugar beet; [3],6
same,"Plant response rating, Sugarbeets",sugar beet; [4],6
same,Sugarbeets plant response rating,sugar beet; [5],8
same,Sugarbeets plant response rating,sugar beet; [7],3
same,Sugarbeets plant response rating,sugar beet; [8],6
same,"Plant response rating, Velvetleaf",velvetleaf; [1],5
same,Velvetleaf plant response rating,velvetleaf; [2],6
same,Velvetleaf plant response rating,velvetleaf; [3],5
same,"Plant response rating, Velvetleaf",velvetleaf; [4],6
same,Velvetleaf plant response rating,velvetleaf; [5],7
same,Velvetleaf plant response rating,velvetleaf; [7],6
same,Velvetleaf plant response rating,velvetleaf; [8],6
same,"Plant response rating, Wheat",wheat; [1],0
same,Wheat plant response rating,wheat; [2],0
same,Wheat plant response rating,wheat; [3],5
same,"Plant response rating, Wheat",wheat; [4],6
same,Wheat plant response rating,wheat; [5],7
same,Wheat plant response rating,wheat; [7],4
same,Wheat plant response rating,wheat; [8],6
